{"source": "paper PMC11313072", "about": "“Copper(II) and Zinc(II) Complexes with Bacterial Prodigiosin Are Targeting Site III of Bovine Serum Albumin and Acting as DNA Minor Groove Binders” (International Journal of Molecular Sciences, 2024)", "molecular_target": "T1, bovine serum albumin (BSA) (Bos taurus, UniProt P02769)", "T1 construct": "gene ALB; commercial native full-length BSA (Sigma-Aldrich), mature secreted protein", "T1 sequence (P02769 25-607)": "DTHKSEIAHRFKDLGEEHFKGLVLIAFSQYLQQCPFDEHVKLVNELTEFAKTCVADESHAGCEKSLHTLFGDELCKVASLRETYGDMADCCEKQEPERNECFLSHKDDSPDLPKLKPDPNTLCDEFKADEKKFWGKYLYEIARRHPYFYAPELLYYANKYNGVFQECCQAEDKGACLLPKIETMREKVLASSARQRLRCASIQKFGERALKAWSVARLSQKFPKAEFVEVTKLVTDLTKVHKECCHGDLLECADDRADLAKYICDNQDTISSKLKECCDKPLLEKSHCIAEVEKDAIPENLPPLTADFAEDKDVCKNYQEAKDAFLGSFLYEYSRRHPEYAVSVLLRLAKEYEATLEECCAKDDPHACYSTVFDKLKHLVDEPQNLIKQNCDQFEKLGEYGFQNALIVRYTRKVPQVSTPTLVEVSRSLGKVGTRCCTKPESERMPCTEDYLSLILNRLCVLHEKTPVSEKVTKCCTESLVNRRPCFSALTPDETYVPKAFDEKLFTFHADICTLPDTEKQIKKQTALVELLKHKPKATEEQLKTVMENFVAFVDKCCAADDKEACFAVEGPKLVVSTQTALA", "assay": "tryptophan fluorescence quenching", "assay_type": "binding", "conditions": "PBS pH 7.4, BSA 5 μM, excitation 280 nm, no site marker, double-log", "source_text": "tryptophan fluorescence quenching on bovine serum albumin (BSA)", "data": [{"compound": "CCCCCC1=C/C(=C/c2[nH]c(-c3ccc[nH]3)cc2OC)N=C1C", "note": "[PG, prodigiosin]", "values": [{"measurement": "KA", "setting": "n = 0.97", "value": 5770, "unit": "M⁻¹"}]}, {"compound": "CuPG", "values": [{"measurement": "KA", "setting": "n = 1.41", "value": 805000, "unit": "M⁻¹"}]}, {"compound": "ZnPG", "values": [{"measurement": "KA", "setting": "n = 1.07", "value": 7140, "unit": "M⁻¹"}]}]}
